Experimental data: patent publication US7915012B2, “Methods for screening for inhibitors of TRPV2 activation” (Korea University Industry and Academic Collaboration …, priority 2008, dated 2011)
“Also recorded” adds a separate entry of the source.

Assays:
[1] = Hindpaw licking/flicking behaviors; assay type: in vivo, mice; details: 10 minutes
Protocol: Inflammatory sensitization by probenecid was investigated. Particularly, 50 μl of 1% carrageenan (Sigma Aldrich, USA) was injected to the right hind paws of mice 3 hours before the probenecid injection or 50 μl of CFA (complete Freund's adjuvant; Sigma Aldrich, USA) was injected 24 hours before the probenecid injection. Before the experiment, the mice were adapted for one hour to the experimental environment. […] of vehicle (saline containing 3% DMSO and 0.5% Tween 80) alone or […] of vehicle containing probenecid (20 mM) was injected to the right hind paws of the mice.
The time spent for the hindpaw licking/flicking behaviors in mice were measured according to the method of Bandell M, et al. (Neuron 41:849-857, 2004) and Moqrich A, et al. (Science 307:1468-1472, 2005), for 10 minutes. Statistical data were analyzed by two-tailed, unpaired Student's-t-test and the results were presented by mean ±S.E.M. (***p<0.001, **p<0.01, *p<0.05 and ND, p>0.05).

rTRPV2 = molecular target: T1, rTRPV2 (Rattus norvegicus, UniProt Q9WUD2, A713V/L151P/T158I); assay: Whole-cell voltage-clamp recording in TRPV2 transfected HEK293T cell line; assay type: cell-based; details: 100 μM probenecid; +60 mV and −60 mV; n=5
T1 construct: expressed in transfected cells; host or cells: HEK293T (ATCC CRL-11268)
T1 sequence (Q9WUD2 1-761 L151P/T158I/A713V): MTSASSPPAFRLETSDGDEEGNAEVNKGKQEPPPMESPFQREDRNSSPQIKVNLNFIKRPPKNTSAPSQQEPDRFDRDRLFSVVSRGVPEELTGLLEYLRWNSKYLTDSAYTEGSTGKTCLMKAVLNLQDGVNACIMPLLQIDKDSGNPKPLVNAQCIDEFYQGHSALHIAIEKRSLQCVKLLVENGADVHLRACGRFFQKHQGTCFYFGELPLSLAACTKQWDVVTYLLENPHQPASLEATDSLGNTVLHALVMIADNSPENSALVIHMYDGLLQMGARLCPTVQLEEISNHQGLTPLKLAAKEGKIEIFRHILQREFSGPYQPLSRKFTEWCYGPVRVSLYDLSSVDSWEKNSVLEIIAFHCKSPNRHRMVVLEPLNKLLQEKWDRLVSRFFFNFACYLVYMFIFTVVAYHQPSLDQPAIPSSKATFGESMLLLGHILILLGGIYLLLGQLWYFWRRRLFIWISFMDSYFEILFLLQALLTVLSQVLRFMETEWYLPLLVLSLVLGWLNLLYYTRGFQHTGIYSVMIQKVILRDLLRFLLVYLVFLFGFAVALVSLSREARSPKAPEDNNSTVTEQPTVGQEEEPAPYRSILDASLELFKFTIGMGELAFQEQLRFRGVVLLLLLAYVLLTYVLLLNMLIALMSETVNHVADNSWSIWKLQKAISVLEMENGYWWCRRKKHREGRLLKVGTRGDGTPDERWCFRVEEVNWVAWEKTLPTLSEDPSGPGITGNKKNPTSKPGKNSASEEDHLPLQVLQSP
Protocol: HEK293T cell line (ATCC CRL-1 1268) was transiently transfected with plasmid DNA containing polynucleotide encoding […] (SEQ. ID. NO: 1), rTRPV2 (SEQ. ID. NO: 2), mTRPV3 (SEQ. ID. NO: 3), rTRPV4 (SEQ. ID. NO: 4), mTRPM8 (SEQ. ID. NO: 5) or mTRPA1 (SEQ. ID. NO: 6).
Particularly, the HEK293T cell line was transiently transfected with individual TRP channel plasmid (pcDNA3.1 containing polynucleotide encoding rTRPV1, rTRPV2, mTRPV3, rTRPV4, mTRPM8 or mTRPA1), and 600 ng/well of pCDNA3 (Invitrogen Corp., USA; containing green fluorescent protein (GFP) cDNA) using Fugene6 (Roche Diagnostics, USA) according to manufacturer's instruction. The transformed cells were cultured in DMEM/F12 containing 10% FBS and 1% penicillin/streptomycin in a CO2 incubator for 24 hours. The cells were replated onto poly-L-lysine-coated glass coverslips, followed by further culture for 10-24 hours.
The TRPV2 transfected cell line prepared in Example 1 was treated with 100 μM probenecid (Sigma-Aldrich, USA) and 300 μM 2-APB (2-aminoethoxydiphenyl borate; Cayman Chemical, USA), respectively. Stock solutions were made using water, DMSO or ethanol, and were diluted with test solutions before use.
Whole-cell voltage-clamp recording, one of the patch-clamp techniques, was performed with the transfected cell line of Example <1-1> according to the method of Bandel M, et al. (Neuron 41:849-857, 2004).
Particularly, the extracellular solution (140 mM NaCl, 5 mM KCl, 2 mM CaCl2, 1 mM MgCl2, 10 mM HEPES; titrated to pH 7.4 with NaOH) and the pipette solution (140 mM CsCl, 5 mM EGTA, 10 mM HEPES, 2.0 mM MgATP, 0.2 mM NaGTP; titrated to pH 7.2 with CsOH) were used. The potential was held at −60 mV for 250 ms, voltage-ramp pulsed from −80 mV to +80 mV for […] and returned to −60 mV for 250 ms, which was repeated without intersweep. This experiment was repeated 5 times.
The TRPV2 transfected cell line prepared by the method of Example 1 was treated with 100 μM probenecid, 100 μM probenecid+20 μM ruthenium red (Sigma-Aldrich, USA) and 300 μM 2-APB, respectively. […]

- whole cell current (TRPV2 activation) (rTRPV2): significant increase of current
SMILES: CCCN(CCC)S(=O)(=O)c1ccc(C(=O)O)cc1 [probenecid]
- hindpaw licking/flicking behavior in normal mice ([1]; 20 mM probenecid injected to the right hind paw): no significant changes in behavior
- hindpaw licking/flicking behavior in mice with inflammation induced by carrageenan ([1]; 1% carrageenan 3 hours before, 20 mM probenecid to the right hind paw): significantly extended behavior time; also recorded: behavial changes were observed
- hindpaw licking/flicking behavior in mice with inflammation induced by CFA ([1]; CFA 24 hours before, 20 mM probenecid to the right hind paw): significantly extended behavior time; also recorded: behavial changes were observed
